pKi: −log10 of the molar value. Activity calls are given as the source filed them. Peptide text beside a SMILES is read from it. A value given as a limit tells only on which side of the number the result lay.

The target of data set [1] is T1, Disks large homolog 4 (Homo sapiens, UniProt P78352). Description: Inhibition of PSD-95 PDZ3 domain by competitive fluorescence polarization assay. The settings on record: for pKi: read-out: Ki. (In fluorescence polarisation assays a small probe gives low polarisation when free and higher when bound to something large.)
Target sequence in this assay (P78352 whole entry, the tested form may be a part): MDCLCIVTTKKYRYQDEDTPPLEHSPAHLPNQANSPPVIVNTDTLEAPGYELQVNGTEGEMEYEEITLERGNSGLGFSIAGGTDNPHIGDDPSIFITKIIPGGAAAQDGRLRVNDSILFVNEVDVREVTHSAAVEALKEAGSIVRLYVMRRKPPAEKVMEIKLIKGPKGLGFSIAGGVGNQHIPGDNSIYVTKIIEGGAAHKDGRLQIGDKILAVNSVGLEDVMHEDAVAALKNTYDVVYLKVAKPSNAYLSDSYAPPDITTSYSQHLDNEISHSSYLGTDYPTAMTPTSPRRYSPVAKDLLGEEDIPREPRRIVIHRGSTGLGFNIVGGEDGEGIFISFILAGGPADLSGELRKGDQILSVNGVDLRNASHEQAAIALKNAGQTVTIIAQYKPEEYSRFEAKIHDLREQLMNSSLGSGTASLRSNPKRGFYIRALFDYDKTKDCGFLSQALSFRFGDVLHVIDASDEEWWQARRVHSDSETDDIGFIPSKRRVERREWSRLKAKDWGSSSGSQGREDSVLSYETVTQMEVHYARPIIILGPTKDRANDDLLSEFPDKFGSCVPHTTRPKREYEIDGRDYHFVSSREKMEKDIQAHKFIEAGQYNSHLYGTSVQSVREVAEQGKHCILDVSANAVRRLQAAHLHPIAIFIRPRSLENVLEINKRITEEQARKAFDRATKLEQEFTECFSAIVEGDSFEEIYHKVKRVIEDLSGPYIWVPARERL
Data set [2] concerns the target T1, Disks large homolog 4. Description: Inhibition of PSD-95 PDZ2 domain by competitive fluorescence polarization assay.
Target sequence in this assay (P78352 whole entry, the tested form may be a part): as above
Data set [3] deals with T1, Disks large homolog 4. The data set is described as follows: Inhibition of PSD-95 PDZ2 domain-GluN2B interaction expressed in COS7 cells transfected with pGFP2-PDZ2 and pRluc-N2B at 500 uM by BRET assay. The settings on record: COS-7. Format: cell-based. (Bioluminescence resonance energy transfer reports proximity on the nanometre scale.)
Target sequence in this assay (P78352 whole entry, looked up, the tested form may be a part): as the sequence (P78352 whole entry, the tested form may be a part) above
Data set [4] can be described thus: Stability in human plasma assessed as half life by ESI-LC/MS. Format: ADME, cell-free.
For data set [5], the target named is T1, Disks large homolog 4. The data set is described as follows: Inhibition of PSD-95 PDZ2 domain-GluN2B interaction expressed in COS7 cells transfected with pGFP2-PDZ2 and pRluc-N2B at 50 to 1000 uM by BRET assay. Format: cell-based. The settings on record: COS-7.
Target sequence in this assay (P78352 whole entry, looked up, the tested form may be a part): as the sequence (P78352 whole entry, the tested form may be a part) above
Data set [6] addresses T1, Disks large homolog 4. The data set is described as follows: Inhibition of PSD-95 PDZ2 domain-GluN2B interaction expressed in COS7 cells transfected with pGFP2-PDZ2 and pRluc-N2B at 100 uM by BRET assay. Format: cell-based. The settings on record: COS-7.
Target sequence in this assay (P78352 whole entry, looked up, the tested form may be a part): as the sequence (P78352 whole entry, the tested form may be a part) above

Regarding `CC(C)[C@H](NC(=O)[C@H](CC(=O)O)NC(=O)[C@@H](NC(=O)[C@H](CCC(N)=O)NCCC1CCCCC1)[C@@H](C)O)C(=O)O`, on Disks large homolog 4 [1], the Ki entry is on record as “Not Active”.
For orientation: pKi means the Ki on a negative log10 scale, so that one unit is a factor of ten. As for `CC(C)[C@H](NC(=O)[C@H](CC(=O)O)NC(=O)[C@@H](NC(=O)[C@H](CCC(=O)O)NCCc1ccc2ccccc2c1)[C@@H](C)O)C(=O)O`, the figures for the pKi on Disks large homolog 4 [2] and at Disks large homolog 4 [1] were 5.74 and 3.68, respectively. Also, the inhibition entry at Disks large homolog 4 [3] is “inactive”.
`CC(C)[C@H](NC(=O)[C@H](CC(=O)O)NC(=O)[C@@H](NC(=O)[C@H](CCC(=O)O)NCCC1CCCCC1)[C@@H](C)O)C(=O)O`: the Ki result on Disks large homolog 4 [1] is recorded as “Not Active”. Also, the inhibition entry on Disks large homolog 4 [3] is “inactive”.
Broadly, the half-life is the time needed for the level to fall by half in the phase considered. `CC(C)[C@H](NC(=O)[C@H](C)NC(=O)[C@@H](NC(=O)[C@H](CCC(=O)O)NCCc1ccc(Cl)c(Cl)c1)[C@@H](C)O)C(=O)O`: in data set [4], the half-life came out at 1.38 h. For the same compound, at Disks large homolog 4 [5], the inhibition result is “Dose-dependent effect”. Besides, on Disks large homolog 4 [3], the inhibition result was “Active”.
For the compound `CC(C)[C@H](NC(=O)[C@H](C)NC(=O)[C@@H](NC(=O)[C@H](CCC(=O)O)NCCc1ccc2ccc3cccc4ccc1c2c34)[C@@H](C)O)C(=O)O`, the pKi at Disks large homolog 4 [2] was 4.80; on Disks large homolog 4 [1], 4.29.
As for `CN[C@@H](CCC(=O)O)C(=O)N[C@H](C(=O)N[C@@H](C)C(=S)N[C@H](C(=O)O)C(C)C)[C@@H](C)O`, in data set [4], the half-life is > 91.7 h. This compound showed a pKi on Disks large homolog 4 [2] of 4.97.
Consider `CC(C)[C@H](NC(=O)[C@H](C)NC(=O)[C@@H](NC(=O)[C@H](CCC(=O)O)NCCCc1ccc2ccccc2c1)[C@@H](C)O)C(=O)O`, for which the pKi is 5.30 at Disks large homolog 4 [2] and 4.28 on Disks large homolog 4 [1].
With `C[C@H](NC(=O)[C@H](C)NC(=O)[C@H](C)NC(=O)[C@H](CCC(=O)O)NCCCc1ccc(Cl)c(Cl)c1)C(=O)O`, the inhibition entry on Disks large homolog 4 [5] was “inactive”.
`CC(C)[C@H](NC(=O)[C@H](C)NC(=O)[C@@H](NC(=O)[C@@H](N)CCC(=O)O)[C@@H](C)O)C(=O)O`: at Disks large homolog 4 [3], the inhibition entry is “inactive”.
On to `CN[C@@H](CCC(=O)O)C(=O)N[C@H](C(=S)N[C@@H](C)C(=O)N[C@H](C(=O)O)C(C)C)[C@@H](C)O`, for which the half-life in data set [4] is 9 h. On Disks large homolog 4 [2], this compound showed a pKi of 3.66.
Consider `CN[C@@H](CCC(=O)O)C(=O)N[C@H](C(=O)N[C@@H](C)C(=O)N[C@H](C(=O)O)C(C)C)[C@@H](C)O`, for which the half-life in data set [4] was 1.88 h. For the same compound, the pKi on Disks large homolog 4 [2] is 5.02.
In the case of `CC(C)[C@H](NC(=O)[C@H](C)NC(=O)[C@@H](NC(=O)[C@H](CCC(=O)O)NCCc1ccc2ccccc2c1)[C@@H](C)O)C(=O)O`, the half-life in data set [4] was determined as 1.53 h. The inhibition entry at Disks large homolog 4 [5] is “Dose-dependent effect”. The inhibition result on Disks large homolog 4 [3] was “Active”.
For the compound `CC(C)[C@H](NC(=O)[C@H](C)NC(=O)[C@@H](NC(=O)[C@H](CCC(=O)O)NCCCc1ccc(F)c(F)c1F)[C@@H](C)O)C(=O)O`, the pKi was 5.38 at Disks large homolog 4 [2] and 4.36 at Disks large homolog 4 [1].
On the same counts, the results for `CC(C)[C@H](NC(=O)[C@H](C)NC(=O)[C@@H](NC(=O)[C@H](CCC(=O)O)NCC12CC3CC(CC(C3)C1)C2)[C@@H](C)O)C(=O)O` are 5.68 and 5.17.
For the compound `CN[C@@H](CCC(=O)O)C(=S)N[C@H](C(=O)N[C@@H](C)C(=O)N[C@H](C(=O)O)C(C)C)[C@@H](C)O`, in data set [4], the half-life is > 91.7 h. On Disks large homolog 4 [2], this compound had a pKi of 4.49.
For the compound `CC(C)[C@H](NC(=O)[C@H](C)NC(=O)[C@@H](NC(=O)[C@H](CCC(=O)O)NCCC1CCCCCC1)[C@@H](C)O)C(=O)O`, the values for the negative-log Ki (pKi) at Disks large homolog 4 [2] and at Disks large homolog 4 [1] were 5.92 and 5.03, respectively.
Turning to `CC(C)[C@H](NC(=O)[C@H](C)NC(=O)[C@@H](NC(=O)[C@H](CCC(=O)O)NCCc1ccc(F)c(F)c1F)[C@@H](C)O)C(=O)O`, the pKi is 5.74 at Disks large homolog 4 [2] and 5.06 at Disks large homolog 4 [1].
As for `CC(C)[C@H](NC(=O)[C@H](CC(=O)O)NC(=O)[C@@H](NC(=O)[C@@H](N)CCC(N)=O)[C@@H](C)O)C(=O)O`, the Ki result on Disks large homolog 4 [1] is “Not Active”.
Regarding `CC(C)[C@H](NC(=O)[C@H](C)NC(=O)[C@@H](NC(=O)[C@H](CCC(=O)O)NCCC1CCCCC1)[C@@H](C)O)C(=O)O`, the half-life in data set [4] was 0.483 h. In addition, the inhibition entry on Disks large homolog 4 [5] was “Dose-dependent effect”. For the same compound, the pKi at Disks large homolog 4 [2] was 6.20. For the same compound, the inhibition entry on Disks large homolog 4 [3] was “Active”.
On to `CC(C)[C@H](NC(=O)[C@H](C)NC(=O)[C@@H](NC(=O)[C@H](CCC(=O)O)NCC1CC2CCC1C2)[C@@H](C)O)C(=O)O` (some centres undefined), for which the pKi at Disks large homolog 4 [2] was 5.89; at Disks large homolog 4 [1], 4.70.
For the compound `CC(C)[C@H](NC(=O)[C@H](C)NC(=O)[C@@H](NC(=O)[C@@H](N)CCC(N)=O)[C@@H](C)O)C(=O)O` (H-QTAV-OH), the pKi is 3.96 at Disks large homolog 4 [2] and < 3.40 on Disks large homolog 4 [1].
In the case of `CC(C)[C@H](NC(=O)[C@H](CC(=O)O)NC(=O)[C@@H](NC(=O)[C@H](C)NCCC1CCCCC1)[C@@H](C)O)C(=O)O`, the pKi on Disks large homolog 4 [1] is < 3.40.
With `CC(C)[C@H](NC(=O)[C@H](C)NC(=O)[C@@H](NC(=O)[C@H](CCC(=O)O)NCC1CCCCCC1)[C@@H](C)O)C(=O)O`, the pKi is 5.85 on Disks large homolog 4 [2] and 4.80 on Disks large homolog 4 [1].
`CC(C)[C@H](NC(=O)[C@H](C)NC(=O)[C@@H](NC(=O)[C@H](C)NCCc1ccc2ccccc2c1)[C@@H](C)O)C(=O)O`: the pKi was 4.25 on Disks large homolog 4 [2] and 3.55 at Disks large homolog 4 [1].
On the same counts, the results for `CC(C)[C@H](NC(=O)[C@H](C)NC(=O)[C@@H](NC(=O)[C@H](CCC(=O)O)NCCCCc1ccc2ccc3cccc4ccc1c2c34)[C@@H](C)O)C(=O)O` are 4.48 and 4.12.
`CC(C)[C@H](NC(=O)[C@H](CC(=O)O)NC(=O)[C@@H](NC(=O)[C@@H](N)CCC(=O)O)[C@@H](C)O)C(=O)O` (H-ETDV-OH): on Disks large homolog 4 [3], the inhibition entry was “inactive”.
For the compound `CC(C)[C@H](NC(=O)[C@H](CC(=O)O)NC(=O)[C@@H](NC(=O)[C@H](C)N)[C@@H](C)O)C(=O)O` (H-ATDV-OH), at Disks large homolog 4 [1], the Ki result is recorded as “Not Active”.
Regarding `CC(C)[C@H](NC(=S)[C@H](C)NC(=O)[C@@H](NC(=O)[C@H](CCC(=O)O)NCCC1CCCCC1)[C@@H](C)O)C(=O)O`, the half-life in data set [4] is > 117 h. The inhibition entry on Disks large homolog 4 [5] and at Disks large homolog 4 [3] was “Active” throughout. Also, the pKi on Disks large homolog 4 [2] is 6.20; on Disks large homolog 4 [1], 4.96.
Turning to `CC(C)[C@H](NC(=O)[C@H](CC(=O)O)NC(=O)[C@@H](NC(=O)[C@H](CCC(=O)O)NCCc1ccc(Cl)c(Cl)c1)[C@@H](C)O)C(=O)O`, the pKi is 5.92 on Disks large homolog 4 [2] and 3.89 at Disks large homolog 4 [1]. The inhibition entry at Disks large homolog 4 [3] was “inactive”.
H-RRRRRRRRKLSSIESDV-OH: at Disks large homolog 4 [6], the inhibition entry is “Active”.
On to `CC(C)[C@H](NC(=O)[C@H](C)NC(=O)[C@@H](NC(=O)[C@H](CCC(=O)O)NCCC1CC2CCC1C2)[C@@H](C)O)C(=O)O` (some centres undefined), for which the pKi was 5.82 on Disks large homolog 4 [2] and 4.85 at Disks large homolog 4 [1].
Consider `CC(C)[C@H](NC(=S)[C@H](C)NC(=O)[C@@H](NC(=O)[C@H](CCC(=O)O)NCCc1ccc2ccccc2c1)[C@@H](C)O)C(=O)O`, for which the half-life in data set [4] was > 117 h. Moreover, the inhibition entry at Disks large homolog 4 [5] was “Dose-dependent effect”. The negative-log Ki (pKi) on Disks large homolog 4 [2] is 5.96; at Disks large homolog 4 [1], 4.96. Moreover, on Disks large homolog 4 [3], the inhibition entry is “Active”.
In the case of `CC(C)[C@H](NC(=O)[C@H](C)NC(=O)[C@@H](NC(=O)[C@H](C)N)[C@@H](C)O)C(=O)O` (H-ATAV-OH), the pKi at Disks large homolog 4 [1] was < 3.40. For the same compound, at Disks large homolog 4 [3], the inhibition entry is “inactive”.
Turning to `CC(C)[C@H](NC(=O)[C@H](C)NC(=O)[C@@H](NC(=O)[C@H](CCC(=O)O)NCCCc1c2ccccc2cc2ccccc12)[C@@H](C)O)C(=O)O`, the values for the pKi on Disks large homolog 4 [2] and at Disks large homolog 4 [1] were 5.05 and 4.02, respectively.
As for `CC(C)[C@H](NC(=O)[C@H](C)NC(=O)[C@@H](NC(=O)[C@H](C)NCCc1ccc(Cl)c(Cl)c1)[C@@H](C)O)C(=O)O`, the figures for the pKi at Disks large homolog 4 [2] and on Disks large homolog 4 [1] were 4.89 and 4.19, respectively.
Regarding `CC(C)[C@H](NC(=S)[C@H](C)NC(=O)[C@@H](NC(=O)[C@H](CCC(=O)O)NCCc1ccc(Cl)c(Cl)c1)[C@@H](C)O)C(=O)O`, the half-life in data set [4] was > 117 h. In addition, on Disks large homolog 4 [5], the inhibition entry is “Dose-dependent effect”. Besides, the pKi is 6.00 at Disks large homolog 4 [2] and 5.08 at Disks large homolog 4 [1]. On Disks large homolog 4 [3], the inhibition result is “Active”.

(Values after ChEMBL document CHEMBL1687918, “Cell-permeable and plasma-stable peptidomimetic inhibitors of the postsynaptic density-95/N-methyl-D-aspartate receptor interaction” (J Med Chem, 2011).)
